{"source": "patent US20180110754A1", "about": "“CENICRIVIROC FOR THE TREATMENT OF FIBROSIS” (Tobira Therapeutics, Inc., priority 2015, published 2018)", "format_in_all_cases": "in vivo, human", "key": {"HIV-1": {"test_system": "HIV-1", "assay": "Study 202 Phase 2b: virologic response (HIV-1 RNA <50 copies/mL, FDA Snapshot)", "conditions": "EFV + FTC/TDF", "excerpt": "Subjects with a history of HIV-2, hepatitis B and/or C, cirrhosis of the liver or any known active or chronic active liver disease were excluded from the study.\nThe primary efficacy endpoint was virologic response at Week 24, defined as HIV-1 RNA<50 copies/mL using the FDA Snapshot Algorithm."}, "APRI and FIB-4 scores": {"test_system": "APRI and FIB-4 scores", "assay": "Study 202 post-hoc APRI and FIB-4 fibrosis index scores", "method": "APRI and FIB-4 scores were calculated. Change in score category from baseline (BL) to Weeks 24 and 48 was assessed in patients with non-missing data. Correlations between changes from BL in APRI and FIB-4 scores, and MCP-1 (CCR2 ligand) and sCD14 (inflammatory biomarker) levels were evaluated."}, "[1]": {"test_system": "MCP-1, sCD14, hs-CRP, IL-6, D-dimer, fibrinogen", "assay": "Study 202: biomarkers of inflammation and immune function", "conditions": "EFV 600 mg", "method": "As an exploratory analysis, levels of inflammation biomarkers MCP-1, sCD14, high sensitivity C-reactive protein [hs-CRP], interleukin-6 [IL-6], D-dimer, and fibrinogen) were measured. Baseline values and changes from baseline at Week 24 and Week 48 of MCP-1, sCD14, hs-CRP, IL-6, D-dimer, and fibrinogen are summarized in Table 25.\nThe sCD14 samples were originally analyzed in 2 separate batches: Batch 1 included samples leading up to the Week 24 primary analysis and Batch 2 included Week 32 and Week 48 (end of study) samples. A repeat analysis of archived samples all analyzed in one batch was conducted for consistency in analysis across time points. To control for the effects of covariates, a linear mixed-model repeated-measures analysis was conducted on the changes from baseline in sCD14 (analysis dated September 2013)."}}, "data": [{"smiles": "O=C1Nc2ccc(Cl)cc2[C@@](C#CC2CC2)(C(F)(F)F)O1", "note": "[EFV, efavirenz, reference compound]", "values": [{"measurement": "Virologic success (HIV-1 RNA <50 copies/mL)", "setting": "HIV-1; Week 24", "result": 71, "unit": "%"}, {"measurement": "Virologic success (HIV-1 RNA <50 copies/mL)", "setting": "HIV-1; Week 48", "result": 50, "unit": "%"}, {"measurement": "Patients in APRI category 0.5-1.5", "setting": "APRI and FIB-4 scores; Baseline", "result": 4, "unit": "%"}, {"measurement": "Patients in FIB-4 category <1.45", "setting": "APRI and FIB-4 scores; Baseline", "result": 100, "unit": "%"}, {"measurement": "Patients in APRI category <0.5", "setting": "APRI and FIB-4 scores; Baseline, CVC pooled 100/200 mg or EFV", "result": 96, "unit": "%"}, {"measurement": "Patients in APRI category <0.5", "setting": "APRI and FIB-4 scores; Week 24", "result": 100, "unit": "%"}, {"measurement": "Patients in FIB-4 category <1.45", "setting": "APRI and FIB-4 scores; Week 24", "result": 100, "unit": "%"}, {"measurement": "Patients with APRI decreased 1 category from baseline", "setting": "APRI and FIB-4 scores; Week 24", "result": 5, "unit": "%"}, {"measurement": "Patients in APRI category <0.5", "setting": "APRI and FIB-4 scores; Week 48", "result": 100, "unit": "%"}, {"measurement": "Patients in FIB-4 category 1.45-3.25", "setting": "APRI and FIB-4 scores; Week 48", "result": 6, "unit": "%"}, {"measurement": "Patients in FIB-4 category <1.45", "setting": "APRI and FIB-4 scores; Week 48", "result": 94, "unit": "%"}, {"measurement": "Patients with APRI decreased 1 category from baseline", "setting": "APRI and FIB-4 scores; Week 48", "result": 6, "unit": "%"}, {"measurement": "D-dimer baseline value, mean", "setting": "[1]", "result": 163, "unit": "ng/mL"}, {"measurement": "D-dimer baseline value, median", "setting": "[1]", "result": 150, "unit": "ng/mL"}, {"measurement": "D-dimer change from baseline at Week 24, mean", "setting": "[1]", "result": -53, "unit": "ng/mL"}, {"measurement": "D-dimer change from baseline at Week 24, median", "setting": "[1]", "result": -26, "unit": "ng/mL"}, {"measurement": "D-dimer change from baseline at Week 48, mean", "setting": "[1]", "result": -34, "unit": "ng/mL"}, {"measurement": "D-dimer change from baseline at Week 48, median", "setting": "[1]", "result": 0.0, "unit": "ng/mL"}, {"measurement": "Fibrinogen baseline value, mean", "setting": "[1]", "result": 258, "unit": "mg/dL"}, {"measurement": "Fibrinogen baseline value, median", "setting": "[1]", "result": 245, "unit": "mg/dL"}, {"measurement": "Fibrinogen change from baseline at Week 24, mean", "setting": "[1]", "result": -28, "unit": "mg/dL"}, {"measurement": "Fibrinogen change from baseline at Week 24, median", "setting": "[1]", "result": -31, "unit": "mg/dL"}, {"measurement": "Fibrinogen change from baseline at Week 48, mean", "setting": "[1]", "result": -30, "unit": "mg/dL"}, {"measurement": "Fibrinogen change from baseline at Week 48, median", "setting": "[1]", "result": -22, "unit": "mg/dL"}, {"measurement": "IL-6 baseline value, mean", "setting": "[1]", "result": 13.81, "unit": "pg/mL"}, {"measurement": "IL-6 baseline value, median", "setting": "[1]", "result": 1.90, "unit": "pg/mL"}, {"measurement": "IL-6 change from baseline at Week 24, mean", "setting": "[1]", "result": -8.72, "unit": "pg/mL"}, {"measurement": "IL-6 change from baseline at Week 24, median", "setting": "[1]", "result": 0.00, "unit": "pg/mL"}, {"measurement": "IL-6 change from baseline at Week 48, mean", "setting": "[1]", "result": -13.11, "unit": "pg/mL"}, {"measurement": "IL-6 change from baseline at Week 48, median", "setting": "[1]", "result": 0.00, "unit": "pg/mL"}, {"measurement": "MCP-1 baseline value, mean", "setting": "[1]", "result": 139, "unit": "pg/mL"}, {"measurement": "MCP-1 baseline value, median", "setting": "[1]", "result": 122, "unit": "pg/mL"}, {"measurement": "MCP-1 change from baseline at Week 24, mean", "setting": "[1]", "result": -44, "unit": "pg/mL"}, {"measurement": "MCP-1 change from baseline at Week 24, median", "setting": "[1]", "result": -17, "unit": "pg/mL"}, {"measurement": "MCP-1 change from baseline at Week 48, mean", "setting": "[1]", "result": 4.2, "unit": "pg/mL"}, {"measurement": "MCP-1 change from baseline at Week 48, median", "setting": "[1]", "result": 33.6, "unit": "pg/mL"}, {"measurement": "hs-CRP baseline value, mean", "setting": "[1]", "result": 0.81, "unit": "mg/dL"}, {"measurement": "hs-CRP baseline value, median", "setting": "[1]", "result": 0.14, "unit": "mg/dL"}, {"measurement": "hs-CRP change from baseline at Week 24, mean", "setting": "[1]", "result": -0.46, "unit": "mg/dL"}, {"measurement": "hs-CRP change from baseline at Week 24, median", "setting": "[1]", "result": -0.01, "unit": "mg/dL"}, {"measurement": "hs-CRP change from baseline at Week 48, mean", "setting": "[1]", "result": -0.71, "unit": "mg/dL"}, {"measurement": "hs-CRP change from baseline at Week 48, median", "setting": "[1]", "result": -0.03, "unit": "mg/dL"}, {"measurement": "sCD14 (original values) baseline value, mean", "setting": "[1]", "result": "2e+06", "unit": "pg/mL"}, {"measurement": "sCD14 (original values) baseline value, median", "setting": "[1]", "result": "2.02e+06", "unit": "pg/mL"}, {"measurement": "sCD14 (original values) change from baseline at Week 12, mean", "setting": "[1]", "result": 90000, "unit": "pg/mL"}, {"measurement": "sCD14 (original values) change from baseline at Week 12, median", "setting": "[1]", "result": 180000, "unit": "pg/mL"}, {"measurement": "sCD14 (original values) change from baseline at Week 24, mean", "setting": "[1]", "result": 230000, "unit": "pg/mL"}, {"measurement": "sCD14 (original values) change from baseline at Week 24, median", "setting": "[1]", "result": 130000, "unit": "pg/mL"}, {"measurement": "sCD14 (original values) change from baseline at Week 32, mean", "setting": "[1]", "result": 480000, "unit": "pg/mL"}, {"measurement": "sCD14 (original values) change from baseline at Week 32, median", "setting": "[1]", "result": 170000, "unit": "pg/mL"}, {"measurement": "sCD14 (original values) change from baseline at Week 48, mean", "setting": "[1]", "result": 640000, "unit": "pg/mL"}, {"measurement": "sCD14 (original values) change from baseline at Week 48, median", "setting": "[1]", "result": 460000, "unit": "pg/mL"}]}]}
